How the values were obtained:
Assay type in all cases: in vivo
[1] = system: Patio variety tomato seedlings; experiment: Tomato epinasty test, volatile gas treatment; conditions: ethylene 10 ppm v/v, scale of 0 to 10, 10 complete protection, 0 no protection
Protocol: The test procedure is designed to determine the ability of an compound according to the present invention to block the epinastic growth response induced by ethylene in tomato plants when the compound is administered either as a volatile gas or as a component of a spray solution. Treatment chambers are of an appropriate size for the test plants and are airtight. Each is fitted with a reusable septum to be used for injection of ethylene. Test plants are Patio variety tomato seedlings planted two plants per three inch square plastic pot. Volatile gas treatment entails placing two pots of Patio var. tomatoes into a polystyrene 4.8 L volume treatment chamber along with one-half (upper or lower section) of a 50×9 mm plastic Petri dish containing a Gelman filter pad. The appropriate amount of experimental compound, dissolved in 1.0 ml acetone, is pipetted onto the filter pad and the chamber immediately sealed. Four hours later ethylene gas equal to 10 ppm v/v final concentration is injected into the sealed chamber. Sixteen hours later the chambers are opened in an exhaust hood, allowed to air and the plants scored visually for the degree of protection against ethylene-induced epinasty conferred by the experimental compound when compared to ethylene treated and untreated controls on a scale of 0 to 10. A rating of 10 means complete protection. A rating of 0 means no protection from the effects of ethylene.

banana [2] = experiment: Minimum concentration protecting bananas from 333 μl/l ethylene (short-chain cyclopropenes injected as gas); conditions: 24 hours exposure to compound as gas in 3-liter jar, then 333 μl/l ethylene 12-15 hours, observed for ripening
Protocol: To obtain the minimum concentration that protected bananas from 333 μl/l of ethylene, compounds described in U.S. Pat. No. 5,518,988 to Sisler et al. were applied to bananas according to the methods setforth herein. A known amount of an active compound was injected as a gas into a 3-liter jar containing a banana. The jar was sealed and the banana was removed after 24 hours. At the end of exposure, the banana was treated with 333 pill of ethylene in a 3-liter jar for 12-15 hours. It was then observed for ripening. The minimum concentration is the minimum concentration that protected the banana from 333 μl/l of ethylene. Ten microliters/liter of ethylene is usually considered to be a saturating amount.

banana [3] = experiment: Time of protection (insensitivity to ethylene) of bananas, short-chain cyclopropenes; conditions: saturating amount (at least 10 times minimum) for 24 hours, daily challenge with 333 μl/l ethylene 12-15 hours
Protocol: To obtain the time of protection, bananas were exposed to a saturating amount of the compound for 24 hours (this was done as above and at least 10 times the minimum protection amount was used). After exposure, bananas were removed from the jars and each day individual bananas were exposed to 333 pill of ethylene for 12-15 hours. The day the bananas responded to ethylene was recorded as the protection time.

Compound | Protection against ethylene-induced epinasty, rating ([1]; Gas 10 ppm) | Protection against ethylene-induced epinasty, rating ([1]; Gas 1000 ppm) | also measured
CCCCCC1(CCCCC)C=C1 [Compound 16, 3,3-Dipentyl-cyclopropene] | 0 | 10 | 
CCCC1=CC1 [1-propylcyclopropene (1-PCP), 1-propylcyclopropene] |  |  | Minimum Concentration (banana [2]): 6 nl/l; Time of Insensitivity (banana [3]): 12 days
CCCCCCCCCC1=CC1 [Compound 24] | 9.5 |  | 
CCCCCCCC1=CC1 [Compound 26] | 10 |  | 
CCCCCC1=CC1 [Compound 31] | 10 |  | 
1-Pentyloxyethyl-cyclopropene [Compound 15] | 10 |  | 
CCN(CC)CCCCCCCC1=CC1 [Compound 11, 1-(7-N,N-Diethylaminoheptyl)-cyclopropene] | 3 | 10 | 
CCCCCCCCCCCCCCC1=CC1 [Compound 42] | 2 | 10 | 
1-ethylcyclopropene [1-ethylcyclopropene (1-ECP)] |  |  | Minimum Concentration (banana [2]): 4 nl/l; Time of Insensitivity (banana [3]): 12 days
CCCCN(CCCC)CC1=CC1 [Compound 41] | 3 | 10 | 
COCCCCCCCC1=CC1 [Compound 3, 1-(7-Methoxyheptyl)-cyclopropene] | 9.5 |  | 
OCCCCCCCC1=CC1 [Compound 5, 1-(7-Hydroxyheptyl)-cyclopropene] | 0 | 10 | 
Hex-5-yne 2-octylcycloprop-2-ene-1-carboxylate [Compound 22] | 0 |  | Protection against ethylene-induced epinasty, rating ([1]; Gas 750 ppm): 9
CCCCCCCCCCCCC1=CC1 [Compound 40] | 4 | 10 | 
CC(=O)CCCCCCC1=CC1 [Compound 46, 8-Cycloprop-1-enyl-octan-2-one] | 3 | 9 | 
CCCCCC1=C(CCCCC)C1 [Compound 45] | 0 | 10 | 
C=CCCCCCCC1=CC1 [Compound 19, 1-(Oct-7-enyl)-cyclopropene] | 10 |  | 
CCC(=O)OCCC1=CC1 [Compound 33] | 0 | 10 | 
CCCCCCOCC1=CC1 [Compound 14, 1-Hexyloxymethyl-cyclopropene] | 10 |  | 
CCCCCCCCCCC1=CC1 [Compound 25] | 9 |  | 
CC(C)N.O=C(O)CCCCCCC1=CC1 [Compound 8, 7-Cycloprop-1-enyl-heptanoic Acid Isopropylamine Salt] | 0 |  | Protection against ethylene-induced epinasty, rating ([1]; Gas 500 ppm): 8
CCCCCCCCC1=C(CCCCCCCC(=O)OC)C1 [Compound 21, Methyl Sterculate] | 5 | 9 | 
cyclopropene [cyclopropene (CP)] |  |  | Minimum Concentration (banana [2]): 0.7 nl/l; Time of Insensitivity (banana [3]): 12 days
1-methylcyclopropene [1-methylcyclopropene (1-MCP)] |  |  | Minimum Concentration (banana [2]): 0.7 nl/l; Time of Insensitivity (banana [3]): 12 days
CC(C)CCCCCC1=CC1 [Compound 34] | 10 |  | 

Compound | Protection against ethylene-induced epinasty, rating ([1]; Gas 10 ppm) | Protection against ethylene-induced epinasty, rating ([1]; Gas 1000 ppm) | also measured
COCCOCCOCC1=CC1 [Compound 30] | 3 | 10 | 
CCCCCC#CCCCCC1=CC1 [Compound 4, 1-(Undec-5-ynl)-cyclopropene] | 10 |  | 
CCC=CCC1=CC1(CCCCC)CCCCC [Compound 18, 1-Pent-2-enyl-3,3-dipentyl-cyclopropene] | 0 | 10 | 
CON=C(C)CCCCCCC1=CC1 (single isomer, unassigned) [Compound 47, 8-Cycloprop-1-enyl-octan-2-one O-methyl Oxime] | 9.5 |  | 
CC(CCC1=CC1)CC(C)(C)C (stereo not shown) [Compound 35] | 10 |  | 
N#CCCCCCCCC1=CC1 [Compound 10, 1-(7-Cyanoheptyl)-cyclopropene] | 2 | 10 | 
CC(C)(O)CCC1=CC1 [Compound 20, 4-(1-Cyclopropenyl)-2-methylbutan-2-ol] | 0 | 8 | 
CCC=CCC1=C(CCCCC)C1 [Compound 17, 1-Pent-2-enyl-2-pentyl-cyclopropene] | 0 | 10 | 
CC(=O)O.CCN(CC)CCCCCCCC1=CC1 [Compound 12, 1-(7-N,N,-Diethylammoniumheptyl)-cyclopropene Acetate] | 2 | 10 | 
O=C(O)CCCCCCC1=CC1 [Compound 7, 7-Cycloprop-1-enyl-heptanoic Acid] | 3 | 8 | 
CC(=O)OCCCCCCCC1=CC1 [Compound 6, 1-(7-Acetoxyheptyl)-cyclopropene] | 0 | 10 | 
CCCCCCCCCCCCCCCC1=CC1 [Compound 38] | 4.5 | 10 | 
CCCCC1=CC1 [1-butylcyclopropene (1-BCP), 1-butylcyclopropene] |  |  | Minimum Concentration (banana [2]): 3 nl/l; Time of Insensitivity (banana [3]): 12 days
CCCCCCC1=CC1CCCCCC (stereo not shown) [Compound 44] | 0 | 10 | 
CCN(CC)C(=O)CCCCCCC1=CC1 [Compound 48, 7-Cycloprop-1-enyl-heptanoic Acid Diethylamide] | 0 | 7 | 
FC(F)(F)CCCCC1=CC1 [Compound 37] | 10 |  | 
CCCCCCCCC1C=C1 [Compound 2, 3-Octylcyclopropene] | 0 | 10 | 
CCCCCCCCCCCCCC1=CC1 [Compound 29] | 3.5 | 10 | 
CCCCC(CC)CCC1=CC1 (stereo not shown) [Compound 28] | 9 |  | 
CC[N+](C)(CC)CCCCCCCC1=CC1.[I-] [Compound 13, 1-(7-N,N,N-Diethylmethylammoniumheptyl)-cyclopropene Iodide] | 6 |  | 
CC(C)(C)CCC1=CC1 [Compound 43] | 10 |  | 
CCCCCCCCCCCC1=CC1 [Compound 27] | 10 |  | 
CCOC(=O)CCCCCCC1=CC1 [Compound 9, 7-Cycloprop-1-enyl-heptanoic Acid Ethyl Ester] | 4 |  | 
CCCCCC(C)CC1=CC1 (stereo not shown) [Compound 32] | 9.5 |  | 
